Measured values as given in patent US20230218717A1, “Administration of CEBP-Beta Antagonist and Methods of Use” (Sapience Therapeutics, Inc., priority 2020, published 2023).
Each block holds one molecule with its values, some of them ahead of it. Where no end group is shown, it is not given here.

Tests used:
[1] = test system: HL-60 promyelocytic leukemia cells; assay: Cytotoxicity in HL-60 cells
Excerpt: (§1) We hypothesized that modifications designed to enhance electrostatic interactions between the peptide and C/EBPβ would increase potency. A panel of 46 rationally-designed peptides probing the molecular packing of non-leucine amino acids of the peptide antagonist with that of the C/EBPβ bZIP domain were synthesized and screened for cytotoxic activity.

[2] = Cytotoxicity in HL-60 cells
Excerpt: as §1

[3] = biological target: C/EBPβ (plate-bound, competitive ELISA); assay: ELISA: 3.6 ng plate-bound C/EBPβ, ATF5 in solution
[4] = biological target: C/EBPβ (Homo sapiens, UniProt P17676); assay: ELISA, ATF5 binding to plate-bound C/EBPβ; settings: 3.6 ng C/EBPβ plate-bound
Chain of C/EBPβ (P17676 whole entry, species assumed): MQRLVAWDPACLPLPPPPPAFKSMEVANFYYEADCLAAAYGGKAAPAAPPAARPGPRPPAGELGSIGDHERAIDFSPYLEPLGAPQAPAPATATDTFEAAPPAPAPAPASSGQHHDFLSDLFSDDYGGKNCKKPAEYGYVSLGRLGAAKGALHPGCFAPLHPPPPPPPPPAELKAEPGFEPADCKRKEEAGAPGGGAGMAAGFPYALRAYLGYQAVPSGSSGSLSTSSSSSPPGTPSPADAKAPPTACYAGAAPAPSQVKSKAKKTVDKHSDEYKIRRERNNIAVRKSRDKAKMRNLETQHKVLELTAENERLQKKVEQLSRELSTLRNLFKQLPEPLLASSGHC
Description: C/EBPβ (3.6 ng/well) was immobilized to a 384-well plate (Nunc MaxiSorp, ThermoSci) by overnight incubation at 4° C. Non-bound protein was removed by three washes with tris-buffered saline (TBS)+0.1% Tween (TBST), and wells were then blocked for 1 hr at 4° C. with 5% bovine serum albumin in TBS.
Plate-bound ATF5 was detected by 1-hr incubations at 4° C. of 1:1000 dilution rabbit-anti-ATF5 antibody (ab60126, Abcam) followed by 1:1000 goat-anti-rabbit IgG-HRP antibody (ab6721, Abcam), with three washes with TBST after each antibody incubation, and 50 μL TMB substrate. The reaction was stopped by addition of 25 μL 2.5M sulfuric acid, and absorbance was detected at 450 nm using a SpectraMax M3 plate reader (Molecular Devices).

Chain of C/EBPβ (plate-bound, competitive ELISA) (P17676 whole entry): as the sequence (P17676 whole entry, species assumed) above

Molecule: 22-amino acid section of native ATF5 bZIP domain, LEGECQGLEARNRELKERAESV, and a 16-amino acid penetratin domain [precursor peptide]
EC50 [1]: 17.4 ± 0.5 µM

Molecule: RQIKIWFQNRRMKWKKLEGRAQGLRAELRELEERAEAV [“winner” peptide]
increase in potency vs. the parent peptide ([1]; HL-60 cytotoxicity EC50): 3.2 fold | EC50 [2]: 5.5 ± 0.5 µM

Continued, values first:

Kd [3]: 0.001 µM
Molecule: recombinant ATF5

Kd of ATF5 association with C/EBPβ [4]: 0.001 µM
B1: ATF5: recombinant ATF5, activating transcription factor 5, binding partner of C/EBPβ (protein)
chain: MSLLATLGLELDRALLPASGLGWLVDYGKLPPAPAPLAPYEVLGGALEGGLPVGGEPLAGDGFSDWMTERVDFTALLPLEPPLPPGTLPQPSPTPPDLEAMASLLKKELEQMEDFFLDAPPLPPPSPPPLPPPPLPPAPSLPLSLPSFDLPQPPVLDTLDLLAIYCRNEAGQEEVGMPPLPPPQQPPPPSPPQPSRLAPYPHPATTRGDRKQKKRDQNKSAALRYRQRKRAEGEALEGECQGLEARNRELKERAESVEREIQYVKDLLIEVYKARSQRTRSC
